Test results taken from PubChem BioAssay AID2060511 (Molecular Pharmacology Branch, DTP, NCI, 2025).

Test system: 422866-222-R5-J1-PDC spheroids with HUVEC/MSC, viability
Test: Anticancer human tumor 422866-222-R5-J1-PDC patient-derived pancreatic adenocarcinoma cell line growth inhibition [GQUAD]
Details: for IC50: curve of first compound; for viability, T/C: stronger effect = lower value
Excerpt: DNA G-quadruplex Stabilizer Agents in Combinations in Complex Spheroids
A high-throughput screen of multi-cell type tumor spheroids was designed to identify active combinations of DNA G-quadruplex stabilizer agents and targeted small molecules. Complex spheroids include a stromal component modeled by human endothelial cells (HUVEC) and fibroblasts modeled by human mesenchymal stem cells (MSCs). The concentration ranges selected for each drug and investigational agent were based upon clinically achievable concentrations if the clinical Cmax of the agent was known.
Compounds. The drugs and investigational agents: pidnarulex (CX-5461; NSC782164), APTO-253 (NSC789042), BRACO-19 (NSC847499), peposertib (NSC802822), ceralasertib (NSC780249), elimusertib (NSC800525), camonsertib (NSC841442), AZD-1390 (NSC803789), olaparib (NSC753686), talazoparib (NSC767125), ART-558 (NSC835418), sotorasib (NSC818433), MRTX-1133 (NSC836407), SN-38 (NSC673596), topotecan (NSC609699), etoposide (NSC141540), doxorubicin (NSC123127), gemcitabine (NSC613327), 5-fluorouracil (NSC19893), paclitaxel (NSC125973), vemurafenib (NSC761431), panobinostat (NSC761190), R-306465 (JNJ-16241199; NSC773264), adavosertib (NSC754352), TP-3654 (NSC805149), carboplatin (NSC241240), KSQ-4279 (NSC840948), and staurosporine (NSC755774) were obtained from the National Cancer Institute (NCI) Developmental Therapeutics Program Chemical Repository (34). The FDA-approved anticancer drug set is available from the NCI Developmental Therapeutics Program. […] The stock solutions were prepared in dimethyl sulfoxide (DMSO, Sigma-Aldrich, St. Louis, MO, cat. D2650) at 800-fold the tested concentration and stored at -70 degrees C prior to their use. All drugs and investigational agents were tested over a range starting from a high concentration at or near the clinical Cmax and decreasing in half-log increments. If the clinical Cmax for an agent had not been determined, the highest concentration tested was 10 microM.
2.3 Cell Culture. All cells were maintained in an incubator at 37 degrees C and 5% CO2 with 95% humidity. The PDC lines were cultured according to standard operating procedures established by the NCI PDMR. All PDCs were thawed and cultured in Matrigel-coated flasks prepared with a working solution of 1X Ham's F-12 nutrient mix, without supplementation (Invitrogen, cat. 11765054), 100 U/mL penicillin-streptomycin (Invitrogen, cat. 15140122), and 2.5% Matrigel (Corning Inc., cat. 354248) for the first three passages. The 857933-349-R-J2-PDC line was cultured in 6C/Colon 1B media, which includes advanced DMEM/F-12 (Thermo Fisher Scientific, cat. 12634028), 10 mM HEPES (Thermo Fisher Scientific, cat. 15630080), 1X GlutaMAX supplement (Thermo Fisher Scientific, cat. 35050061), 0.1 mg/mL primocin (InvivoGen, cat. ant-pm-2), 10% defined fetal bovine serum, heat inactivated (HyClone Laboratories Inc., cat. SH30070.03HI), 50% L-WRN conditioned media (ATCC, cat. CRL-3276), 1.25 mM N-Acetyl-L-cysteine (Sigma-Aldrich, cat. A9165), 10 mM nicotinamide (Sigma-Aldrich, cat. N0636), 1X B-27 supplement (Thermo Fisher Scientific, cat. 17504044), 1X N-2 supplement (Thermo Fisher Scientific, cat. 17502048), 10 microM Y-27632 dihydrochloride (Tocris Bioscience, cat. 1254), and 50 ng/mL human EGF recombinant protein (Thermo Fisher Scientific, cat. PHG0311). The 485176-168-R4-J1-PDC line was cultured in Panc media, which includes all 6C/Colon 1B media components plus 100 ng/mL human FGF-10 (Thermo Fisher Scientific, cat. 100-26), 500 nM SB-431542 (Selleckchem, cat. S1067), and gastrin (Tocris, cat. 3006).
[…]

[1] = second compound 0.0316 µM, first compound 0.0316 µM
[2] = second compound 0.0316 µM, first compound 0.1 µM
[3] = second compound 0.0316 µM, first compound 0.316 µM
[4] = second compound 0.0316 µM, first compound 1 µM
[5] = second compound 0.0316 µM, first compound 3.16 µM
[6] = second compound 0.0316 µM, first compound 10 µM
[7] = second compound 0.1 µM, first compound 0.0316 µM
[8] = second compound 0.1 µM, first compound 0.1 µM
[9] = second compound 0.1 µM, first compound 0.316 µM
[10] = second compound 0.1 µM, first compound 1 µM
[11] = second compound 0.1 µM, first compound 3.16 µM
[12] = second compound 0.1 µM, first compound 10 µM
[13] = second compound 0.316 µM, first compound 0.0316 µM
[14] = second compound 0.316 µM, first compound 0.1 µM
[15] = second compound 0.316 µM, first compound 0.316 µM
[16] = second compound 0.316 µM, first compound 1 µM
[17] = second compound 0.316 µM, first compound 3.16 µM
[18] = second compound 0.316 µM, first compound 10 µM
[19] = second compound 1 µM, first compound 0.0316 µM
[20] = second compound 1 µM, first compound 0.1 µM
[21] = second compound 1 µM, first compound 0.316 µM
[22] = second compound 1 µM, first compound 1 µM
[23] = second compound 1 µM, first compound 3.16 µM
[24] = second compound 1 µM, first compound 10 µM
[25] = second compound 3.16 µM, first compound 0.0316 µM
[26] = second compound 3.16 µM, first compound 0.1 µM
[27] = second compound 3.16 µM, first compound 0.316 µM
[28] = second compound 3.16 µM, first compound 1 µM
[29] = second compound 3.16 µM, first compound 3.16 µM
[30] = second compound 3.16 µM, first compound 10 µM
[31] = second compound 10 µM, first compound 0.0316 µM
[32] = second compound 10 µM, first compound 0.1 µM
[33] = second compound 10 µM, first compound 0.316 µM
[34] = second compound 10 µM, first compound 1 µM
[35] = second compound 10 µM, first compound 3.16 µM
[36] = second compound 10 µM, first compound 10 µM
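Also: spheroids exposed to compounds for seven days before reading.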
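For viability, T/C in this document: percent viability relative to DMSO vehicle control taken as 100%.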

Work on `CCCS(=O)(=O)Nc1ccc(F)c(C(=O)c2c[nH]c3ncc(-c4ccc(Cl)cc4)cc23)c1F` + Cc1[nH]c2ccc(F)cc2c1-c1nc2c3cccnc3c3ncccc3c2[nH]1 yielded an IC50 (second compound 0.0316 µM) of 559 nM, an IC50 (second compound 0.1 µM) of 1020 nM and an IC50 (second compound 0.316 µM) of 1100 nM. For the same compound, the IC50 (second compound 1 µM) was 591 nM, the IC50 (second compound 3.16 µM) was 293 nM and the IC50 (second compound 10 µM) was 139 nM. For the same compound, the viability, T/C [1] was 114%, the viability, T/C [2] was 93.4% and the viability, T/C [3] was 61.5%. It also gave a viability, T/C [4] of 37.4%, a viability, T/C [5] of 34.5% and a viability, T/C [6] of 36.7%. For the same compound, the viability, T/C [7] was 110%, the viability, T/C [8] was 88.5% and the viability, T/C [9] was 61.4%. The viability, T/C [10] was 52.4%, the viability, T/C [11] was 40.6% and the viability, T/C [12] was 32.3%. It also gave a viability, T/C [13] of 134%, a viability, T/C [14] of 95.6% and a viability, T/C [15] of 75.6%. The viability, T/C [16] was 43.8%, the viability, T/C [17] was 43.4% and the viability, T/C [18] was 29%. The viability, T/C [19] was 85.2%, the viability, T/C [20] was 90.3% and the viability, T/C [21] was 63.1%. The viability, T/C [22] was 41.5%, the viability, T/C [23] was 38.1% and the viability, T/C [24] was 37%. It also gave a viability, T/C [25] of 67.3%, a viability, T/C [26] of 52.8% and a viability, T/C [27] of 53.1%. For the same compound, the viability, T/C [28] was 45.2%, the viability, T/C [29] was 43% and the viability, T/C [30] was 41.9%. The viability, T/C [31] was 58.2%, the viability, T/C [32] was 50.8% and the viability, T/C [33] was 47.5%. It also gave a viability, T/C [34] of 50.3%, a viability, T/C [35] of 43.2% and a viability, T/C [36] of 49.9%.
`COc1cc(C2c3cc4c(cc3C(OC3OC5COC(C)OC5C(O)C3O)C3COC(=O)C23)OCO4)cc(OC)c1O` (centres undefined) + Cc1[nH]c2ccc(F)cc2c1-c1nc2c3cccnc3c3ncccc3c2[nH]1 showed an IC50 (second compound 0.0316 µM) of 1570 nM, an IC50 (second compound 0.1 µM) of 835 nM and an IC50 (second compound 0.316 µM) of 2050 nM. It also gave an IC50 (second compound 1 µM) of 1920 nM, an IC50 (second compound 3.16 µM) of 945 nM and an IC50 (second compound 10 µM) of 2230 nM. It also gave a viability, T/C [1] of 108%, a viability, T/C [2] of 96.3% and a viability, T/C [3] of 86.6%. For the same compound, the viability, T/C [4] was 51.3%, the viability, T/C [5] was 47.8% and the viability, T/C [6] was 40.2%. It also gave a viability, T/C [7] of 100%, a viability, T/C [8] of 104% and a viability, T/C [9] of 68.5%. The viability, T/C [10] was 52%, the viability, T/C [11] was 48.6% and the viability, T/C [12] was 36.6%. For the same compound, the viability, T/C [13] was 97.7%, the viability, T/C [14] was 87.9% and the viability, T/C [15] was 75.2%. The viability, T/C [16] was 56.8%, the viability, T/C [17] was 45.5% and the viability, T/C [18] was 39.8%. It also gave a viability, T/C [19] of 97.1%, a viability, T/C [20] of 92.2% and a viability, T/C [21] of 85.8%. The viability, T/C [22] was 59.7%, the viability, T/C [23] was 42.5% and the viability, T/C [24] was 38.5%. For the same compound, the viability, T/C [25] was 82.8%, the viability, T/C [26] was 90.3% and the viability, T/C [27] was 75.5%. It also gave a viability, T/C [28] of 48.6%, a viability, T/C [29] of 48.5% and a viability, T/C [30] of 38.5%. It also gave a viability, T/C [31] of 87.8%, a viability, T/C [32] of 89.2% and a viability, T/C [33] of 77.4%. It also gave a viability, T/C [34] of 56.5%, a viability, T/C [35] of 46.5% and a viability, T/C [36] of 46.8%.
